# Data from ChEMBL document CHEMBL5500345, “Discovery of a novel homoisoflavonoid derivative 5g for anti-osteoclastic bone loss via targeting FGFR1” (Eur J Med Chem, 2024).
# Active and inactive are the calls of the source. The calls are words filed in the database; no cut-off is given here.
# Columns and labels:
# [1] = test system: BMDM; assay: Anti-osteoclastogenic activity in C57/BL6 mouse BMDM cells assessed as inhibition of RANKL-induced osteoclast differentiation at 5 uM incubated for 4 days in presence of M-CSF by TRAP staining based microscopic analysis relative to control; assay type: functional; settings: 96 h, time 4 day
# [2] = test system: BMDM; assay: Anti-osteoclastogenic activity in C57/BL6 mouse BMDM cells assessed as inhibition of RANKL-induced osteoclast differentiation at 10 uM incubated for 4 days in presence of M-CSF by TRAP staining based microscopic analysis relative to control; assay type: functional; settings: 96 h, time 4 day
# [3] = test system: BMDM; assay: Anti-osteoclastogenic activity in C57/BL6 mouse BMDM cells assessed as inhibition of RANKL-induced osteoclast differentiation by measuring number of TRAP-positive cells incubated for 4 days in presence of M-CSF by TRAP staining based microscopic analysis; assay type: functional, cell-based; settings: 96 h
# [4] = test system: BMDM; assay: Cytotoxicity against C57/BL6 mouse BMDM cells at < 20 uM incubated for 48 hrs by EZ-Cytox cell viability assay; assay type: toxicity, cell-based
# [5] = test system: BMDM; assay: Anti-osteoclastogenic activity in C57/BL6 mouse BMDM cells assessed as inhibition of RANKL-induced F-actin belt formation incubated for 6 days by F-actin ring assay; assay type: functional, cell-based; settings: time 6.0 day
# [6] = test system: BMDM; assay: Anti-osteoclastogenic activity in C57/BL6 mouse BMDM cells assessed as inhibition of RANKL-induced bone resorption number incubated for 6 days by fluorescein amine-labeled calcium phosphate based fluorescence spectramax analysis; assay type: functional, cell-based; settings: time 6.0 day
# [7] = test system: BMDM; assay: Anti-osteoclastogenic activity in C57/BL6 mouse BMDM cells assessed as inhibition of RANKL-induced bone resorption pit incubated for 6 days by fluorescein amine-labeled calcium phosphate based fluorescence spectramax analysis; assay type: functional, cell-based; settings: time 6.0 day
# [8] = test system: BMDM; assay: Anti-osteoclastogenic activity in C57/BL6 mouse BMDM cells assessed as inhibition of RANKL-induced osteoclast formation at 10 uM incubated for 4 days in presence of M-CSF by TRAP staining based microscopic analysis; assay type: functional, cell-based; settings: time 4.0 day
# [9] = Cytotoxicity against BMP2-induced mouse Pre-Osteoblast cells at < 20 uM incubated for 48 hrs by EZ-Cytox cell viability assay; assay type: toxicity, cell-based
# [10] = test system: Pre-Osteoblast; assay: Induction of osteogenesis in mouse Pre-Osteoblast cells assessed as increase in ALP expression at < 20 uM incubated for 9 days by BCIP/NBT staining based analysis; assay type: functional, cell-based; settings: time 9.0 day
# [11] = test system: Pre-Osteoblast; assay: Induction of osteogenesis in mouse Pre-Osteoblast cells assessed as effect on ALP mRNA expression by qRT-PCR analysis; assay type: functional, cell-based
# [12] = test system: Pre-Osteoblast; assay: Induction of osteogenesis in mouse Pre-Osteoblast cells assessed as effect on OSX mRNA expression by qRT-PCR analysis; assay type: functional, cell-based
# [13] = test system: Pre-Osteoblast; assay: Induction of osteogenesis in mouse Pre-Osteoblast cells assessed as effect on RUNX2 mRNA expression by qRT-PCR analysis; assay type: functional, cell-based
# [14] = test system: BMDM; assay: Anti-osteoclastogenic activity in M-CSF/RANKL-induced C57/BL6 mouse BMDM cells assessed as downregulation of NFATc1 mRNA expression at 10 uM incubated upto 3 days by qRT-PCR analysis; assay type: functional, cell-based; settings: time <= 3.0 day
# [15] = test system: BMDM; assay: Anti-osteoclastogenic activity in M-CSF/RANKL-induced C57/BL6 mouse BMDM cells assessed as downregulation of ACP5 mRNA expression at 10 uM incubated upto 3 days by qRT-PCR analysis; assay type: functional, cell-based; settings: time <= 3.0 day
# [16] = test system: BMDM; assay: Anti-osteoclastogenic activity in M-CSF/RANKL-induced C57/BL6 mouse BMDM cells assessed as downregulation of Dc-stamp mRNA expression at 10 uM incubated upto 3 days by qRT-PCR analysis; assay type: functional, cell-based; settings: time <= 3.0 day
# [17] = test system: BMDM; assay: Anti-osteoclastogenic activity in M-CSF/RANKL-induced C57/BL6 mouse BMDM cells assessed as downregulation of ATP6V0D2 mRNA expression at 10 uM incubated upto 3 days by qRT-PCR analysis; assay type: functional, cell-based; settings: time <= 3.0 day
# [18] = test system: BMDM; assay: Anti-osteoclastogenic activity in M-CSF/RANKL-induced C57/BL6 mouse BMDM cells assessed as downregulation of MMP9 mRNA expression at 10 uM incubated upto 3 days by qRT-PCR analysis; assay type: functional, cell-based; settings: time <= 3.0 day
# [19] = test system: BMDM; assay: Anti-osteoclastogenic activity in M-CSF/RANKL-induced C57/BL6 mouse BMDM cells assessed as downregulation of CTSK mRNA expression at 10 uM incubated upto 3 days by qRT-PCR analysis; assay type: functional, cell-based; settings: time <= 3.0 day
# [20] = test system: BMDM; assay: Anti-osteoclastogenic activity in M-CSF/RANKL-induced C57/BL6 mouse BMDM cells assessed as downregulation of c-FOS mRNA expression at 10 uM incubated upto 3 days by qRT-PCR analysis; assay type: functional, cell-based; settings: time <= 3.0 day
# [21] = test system: BMDM; assay: Anti-osteoclastogenic activity in M-CSF/RANKL-induced C57/BL6 mouse BMDM cells assessed as downregulation of CTSK protein expression at 10 uM incubated upto 3 days by Western blotting analysis; assay type: functional, cell-based; settings: time <= 3.0 day
# [22] = Toxicity in OVX-induced osteoporosis C57BL/6 mouse model assessed as change in body weight at 30 mg/kg,po administrated twice daily for 4 weeks; assay type: organism-based; settings: in vivo, 672 h
# [23] = test system: Mus musculus; assay: Anti-osteoporosis activity in OVX-induced osteoporosis C57BL/6 mouse model assessed as prevention of bone loss in femur at 15 mg/kg,po administrated twice daily for 4 weeks by micro-CT scanning analysis; assay type: functional, organism-based
# [24] = test system: Mus musculus; assay: Anti-osteoporosis activity in OVX-induced osteoporosis C57BL/6 mouse model assessed as increase in bone volume in femur at 15 mg/kg,po administrated twice daily for 4 weeks by micro-CT scanning analysis; assay type: functional, organism-based
# [25] = test system: Mus musculus; assay: Anti-osteoporosis activity in OVX-induced osteoporosis C57BL/6 mouse model assessed as increase in bone mineral density in femur at 15 mg/kg,po administrated twice daily for 4 weeks by micro-CT scanning analysis; assay type: functional, organism-based
# [26] = test system: Mus musculus; assay: Anti-osteoporosis activity in OVX-induced osteoporosis C57BL/6 mouse model assessed as prevention of bone loss in femur at 30 mg/kg,po administrated twice daily for 4 weeks by micro-CT scanning analysis; assay type: functional, organism-based
# [27] = test system: Mus musculus; assay: Anti-osteoporosis activity in OVX-induced osteoporosis C57BL/6 mouse model assessed as increase in bone volume in femur at 30 mg/kg,po administrated twice daily for 4 weeks by micro-CT scanning analysis; assay type: functional, organism-based
# [28] = test system: Mus musculus; assay: Anti-osteoporosis activity in OVX-induced osteoporosis C57BL/6 mouse model assessed as increase in bone mineral density in femur at 30 mg/kg,po administrated twice daily for 4 weeks by micro-CT scanning analysis; assay type: functional, organism-based
# [29] = test system: BMDM; assay: Anti-osteoclastogenic activity in M-CSF/RANKL-induced C57/BL6 mouse BMDM cells assessed as downregulation of FGFR1 expression at 10 uM incubated upto 3 days by immunoblotting analysis; assay type: functional, cell-based; settings: time <= 3.0 day
# [30] = test system: BMDM; assay: Anti-osteoclastogenic activity in M-CSF/RANKL-induced C57/BL6 mouse BMDM cells assessed as downregulation of ERK1 expression at 10 uM incubated upto 3 days by immunoblotting analysis; assay type: functional, cell-based; settings: time <= 3.0 day
# [31] = test system: BMDM; assay: Anti-osteoclastogenic activity in M-CSF/RANKL-induced C57/BL6 mouse BMDM cells assessed as downregulation of ERK2 expression at 10 uM incubated upto 3 days by immunoblotting analysis; assay type: functional, cell-based; settings: time <= 3.0 day
# [32] = test system: BMDM; assay: Anti-osteoclastogenic activity in M-CSF/RANKL-induced C57/BL6 mouse BMDM cells assessed as downregulation of IkappaBalpha expression at 10 uM incubated upto 3 days by immunoblotting analysis; assay type: functional, cell-based; settings: time <= 3.0 day
# [33] = test system: BMDM; assay: Anti-osteoclastogenic activity in M-CSF/RANKL-induced C57/BL6 mouse BMDM cells assessed as downregulation of NF-kappaB expression at 10 uM incubated upto 3 days by immunoblotting analysis; assay type: functional, cell-based; settings: time <= 3.0 day
structure (smiles),measurement,setting,value
Cc1ccc(O)c(Cc2c(-c3ccccc3)oc3ccccc3c2=O)c1,inhibition at 5 µM,[1],21.5%
same,inhibition at 10 µM,[2],32.5%
CS(=O)(=O)c1ccc(Oc2ccccc2Cc2c(-c3ccccc3)oc3ccccc3c2=O)cc1,inhibition at 5 µM,[1],23.2%
same,inhibition at 10 µM,[2],51.8%
O=c1c(Cc2ccccc2)c(-c2ccccc2)oc2ccccc12,inhibition at 5 µM,[1],22.6%
same,inhibition at 10 µM,[2],30.6%
O=c1c(Cc2cc(Cl)cc(Cl)c2O)c(-c2ccccc2)oc2ccccc12,inhibition at 5 µM,[1],2.94%
same,inhibition at 10 µM,[2],14.7%
O=c1c(Cc2cc(Br)ccc2O)c(-c2ccccc2)oc2ccc(Br)cc12,inhibition at 5 µM,[1],-8.26%
same,inhibition at 10 µM,[2],-4.4%
O=c1c(Cc2cc(Br)ccc2O)c(-c2ccccc2)oc2ccccc12,inhibition at 5 µM,[1],22.7%
same,inhibition at 10 µM,[2],54.5%
O=c1cc(-c2ccccc2)oc2ccccc12 [FLAVONE],inhibition at 5 µM,[1],7.11%
same,inhibition at 10 µM,[2],35.4%
Cc1ccc(-c2oc3ccccc3c(=O)c2Cc2ccccc2O)cc1,inhibition at 5 µM,[1],34.4%
same,inhibition at 10 µM,[2],37.8%
CC(C)(C)c1ccc(Oc2ccccc2Cc2c(-c3ccccc3)oc3ccccc3c2=O)cc1,inhibition at 5 µM,[1],11.1%
same,inhibition at 10 µM,[2],12%
O=c1c(Cc2ccccc2Oc2ccc(O)cc2)c(-c2ccccc2)oc2ccccc12,inhibition at 5 µM,[1],29.4%
same,inhibition at 10 µM,[2],55.3%
O=c1c(Cc2ccccc2O)coc2ccccc12,inhibition at 5 µM,[1],12.8%
same,inhibition at 10 µM,[2],46.7%
O=c1c(Cc2ccccc2O)c(-c2ccc(-c3ccccc3)cc2)oc2ccccc12,inhibition at 5 µM,[1],37.9%
same,inhibition at 10 µM,[2],69.3%
O=c1c(Cc2ccccc2O)c(-c2ccc(Cl)cc2)oc2ccccc12,inhibition at 5 µM,[1],33%
same,inhibition at 10 µM,[2],36.7%
COc1ccc(O)c(Cc2c(-c3ccccc3)oc3ccc(OC)cc3c2=O)c1,inhibition at 5 µM,[1],17.6%
same,inhibition at 10 µM,[2],16.8%
O=c1c(Cc2ccccc2O)c(-c2ccccc2)oc2ccccc12,inhibition at 5 µM,[1],31.5%
same,inhibition at 10 µM,[2],60.4%
O=c1c(Cc2cc(-c3ccccc3)ccc2O)c(-c2ccccc2)oc2ccccc12,inhibition at 5 µM,[1],25.6%
same,inhibition at 10 µM,[2],23.7%
CCOc1cccc(Cc2c(-c3ccccc3)oc3ccccc3c2=O)c1O,inhibition at 5 µM,[1],1.08%
same,inhibition at 10 µM,[2],25%
O=c1c(Cc2cc(F)ccc2O)c(-c2ccccc2)oc2ccc(F)cc12,inhibition at 5 µM,[1],40%
same,inhibition at 10 µM,[2],37.6%
O=c1c(Cc2cccc(F)c2)c(-c2ccccc2)oc2ccccc12,inhibition at 5 µM,[1],22%
same,inhibition at 10 µM,[2],36.3%
COc1ccc(O)c(Cc2c(-c3ccccc3)oc3ccccc3c2=O)c1,inhibition at 5 µM,[1],36.5%
same,inhibition at 10 µM,[2],38.2%
COc1ccc(-c2oc3ccccc3c(=O)c2Cc2ccccc2O)cc1,inhibition at 5 µM,[1],56.4%
same,inhibition at 10 µM,[2],79%
same,IC50,[3],2390 nM
same,Activity,[4],Non-Toxic
same,Activity,[5],Dose-Dependent Effect
same,Activity,[6],Dose-Dependent Effect
same,Activity,[7],Dose-Dependent Effect
same,Activity,[8],Active
same,Activity,[9],Non-Toxic
same,Activity,[10],inactive
same,Activity,[11],inactive
same,Activity,[12],inactive
same,Activity,[13],inactive
same,Activity,[14],Active
same,Activity,[15],Active
same,Activity,[16],Active
same,Activity,[17],Active
same,Activity,[18],Active
same,Activity,[19],Active
same,Activity,[20],Active
same,Activity,[21],Active
same,Activity,[22],Non-Toxic
same,Activity,[23],Active
same,Activity,[24],Active
same,Activity,[25],Active
same,Activity,[26],Active
same,Activity,[27],Active
same,Activity,[28],Active
same,Activity,[29],Active
same,Activity,[30],Active
same,Activity,[31],Active
same,Activity,[32],Active
same,Activity,[33],Active
CCCCOc1ccccc1Cc1c(-c2ccccc2)oc2ccccc2c1=O,inhibition at 5 µM,[1],19%
same,inhibition at 10 µM,[2],44.7%
Cc1ccc(-c2oc3ccc(C)cc3c(=O)c2Cc2cc(C)ccc2O)cc1,inhibition at 5 µM,[1],22.3%
same,inhibition at 10 µM,[2],23.8%
COc1cc(Oc2ccccc2Cc2c(-c3ccccc3)oc3ccccc3c2=O)cc(OC)c1OC,inhibition at 5 µM,[1],22.7%
same,inhibition at 10 µM,[2],40.3%
Cc1ccc(S(=O)(=O)Oc2ccccc2Cc2c(-c3ccccc3)oc3ccccc3c2=O)cc1,inhibition at 5 µM,[1],28.9%
same,inhibition at 10 µM,[2],68.1%
